From ChEMBL document CHEMBL5726990, “Thiazolidinones as cellular anandamide uptake inhibitors and their use in the treatment of psychiatric or neurological disorders and inflammation, in particular neuroinflammation” (2019)

Assay: [3H]-AEA Cellular Uptake: Screening for AEA cellular uptake inhibition was performed in a semi-automated procedure: Pipetting and washing steps were performed by a Biomek3000 laboratory workstation. First, required amounts of U937 cells were centrifuged at 100×g for 5 min and resuspended in RPMI (37° C.) to a final concentration of 2×10^6 cells/mL. Then, 250 μL of cell suspension (0.5×10^6 cells per sample) were transferred into AquaSil™ silanized glass vials (Chromacol 1.1-MTV) in 96-well format. After addition of 5 μL vehicle (DMSO) or compounds the cells were incubated at 37° C. for 15 min. As positive controls OMDM-2 and UCM707 were used at 10 μM in each run. The ETI-T compounds were measured at up to 7 concentrations in triplicates from 100 pM-100 μM. After pre-incubation, a mixture of 0.5 nM[ethanolamine-1-3H]-AEA, (60 Ci/mmol) and 99.5 nM of cold AEA (final 100 nM) was added and samples were incubated at 37° C. for another 15 min. The reaction was stopped by rapid filtration over UniFilter-96 GF/C filters (PerkinElmer) pre-soaked with PBS 0.25% BSA. Cells were washed three times with 100 μL ice-cold PBS buffer containing 1% fatty acid free BSA. After drying, 45 μL MicroScint 20 scintillation cocktail (PerkinElmer, Waltham, Mass., US) was added to the wells and the plate was sealed. Radioactivity was measured by liquid scintillation counting on a PerkinElmer Wallac Trilux MicroBeta 1450 during 2 min. Non-specific binding of [3H]AEA (100 nM) to the glass vials was never higher than 10%. IC50 values were calculated by GraphPad® by non-linear regression using the built-in log(inhibitor) vs. response-variable slope (four parameters) function.
Conditions: U-937

An IC50 of 145 nM was found for `CC/N=C1\S/C(=C\c2ccc(O)c(OCC)c2)C(=O)N1CC` in this work.

An IC50 of 434 nM was found for `O=C1/C(=C/c2ccc(O)cc2)S/C(=N\c2ccccc2)N1OC1=CC=CC1` in this work.

An IC50 of 355 nM was found for `CCCN1C(=O)/C(=C\c2ccc(C(C)C)cc2)S/C1=N\c1ccccc1` in this work.
